Results reported in patent US20240228458A1, “PYRIMIDINE DERIVATIVE HAVING PROTEIN KINASE INHIBITORY ACTIVITY, AND THERAPEUTIC PHARMACEUTICAL COMPOSITION COMPRISING SAME” (THERAPEX CO., LTD., priority 2021, published 2024).

Assays:
Format in all cases: cell-based
[1] = test system: Ba/F3 cells expressing L858R/T790M/C797S (EGFR-LTC); experiment: Growth inhibition (GI50) of Ba/F3 cells expressing L858R/T790M/C797S (EGFR-LTC), Celltiter glo; conditions: Mus musculus, BaF3, 72 h
Method: (§1) In this experimental example, a determination was made as to whether the compounds prepared in Examples 1-283 have the ability to inhibit the growth of Ba/F3 cells expressing EGFR-wt, del19/T790M/C797S (EGFR-DTC), L858R/T790M/C797S (EGFR-LTC), del19/T790M (EGFR-DT), and L858R/T790M (EGFR-LT) variants.
(§2) The parental Ba/F3 cell line is a population of cells that are not introduced with EGFR variants. Specifically, 100 μl of a cell line expressing each variant was plated in a 96-well plate at a density of 100,000 cells/ml. 10-point, 4-fold serial dilutions of each compound were prepared, starting at 2 mM. After 4 h, 0.5 μl of the compound (0.5% DMSO) was added, followed by incubation at 37° C. and 5% CO2 for 72 h. After incubation, the number of viable cells was measured using a Celltiter glo assay kit (Promega) and the GI50 of the compound was determined. The term “GI50” refers to the molar concentration (μM) of the compound required for 50% growth inhibition of cells.

[2] = test system: Ba/F3 cells expressing EGFR-wt; experiment: Growth inhibition (GI50) of Ba/F3 cells expressing EGFR-wt, Celltiter glo; conditions: Mus musculus, BaF3, 72 h
Method: as §1, §2

[3] = test system: Ba/F3 cells expressing del19/T790M/C797S (EGFR-DTC); experiment: Growth inhibition (GI50) of Ba/F3 cells expressing del19/T790M/C797S (EGFR-DTC), Celltiter glo; conditions: Mus musculus, BaF3, 72 h
Method: as §1, §2

[4] = test system: parental Ba/F3 cell line; experiment: Growth inhibition (GI50) of the parental Ba/F3 cell line (not introduced with EGFR variants), Celltiter glo; conditions: Mus musculus, BaF3, 72 h, parental Ba/F3 cells
Method: as §2

Row | Structure (SMILES) | GI50 [1] [nM] | GI50 [2] [nM] | GI50 [3] [nM] | GI50 [4] [nM]
1 | CN1CCN(C2CCN(c3ncc(Nc4ncc(Br)c(Nc5ccc(F)cc5NS(C)(=O)=O)n4)cc3F)CC2)CC1 [Example 25, N-(2-((5-bromo-2-((5-fluoro-6-(4-(4-methylpiperazin-1-yl)piperidin-1-yl)pyridin-3-yl)amino)pyrimidin-4-yl)amino)-5-fluorophenyl)methanesulfonamide] | 100 to 500 | 500 to 2000 | 100 to 500 | 500 to 2000
2 | COc1cc(N2CCC(N3CCN(C)CC3)CC2)c(Cl)cc1Nc1ncc(Br)c(Nc2ccc(F)cc2NS(C)(=O)=O)n1 [Example 26, N-(2-((5-bromo-2-((5-chloro-2-methoxy-4-(4-(4-methylpiperazin-1-yl)piperidin-1-yl)phenyl)amino)pyrimidin-4-yl)amino)-5-fluorophenyl)methanesulfonamide] | 25 to 100 | 100 to 500 | 25 to 100 | 2000 to 10000
3 | CN1CCN(C2CCN(c3ccc(Nc4ncc(Br)c(Nc5ccc(F)cc5NS(C)(=O)=O)n4)c(Cl)c3)CC2)CC1 [Example 27, N-(2-((5-bromo-2-((2-chloro-4-(4-(4-methylpiperazin-1-yl)piperidin-1-yl)phenyl)amino)pyrimidin-4-yl)amino)-5-fluorophenyl)methanesulfonamide] | 500 to 2000 | 2000 to 10000 | 100 to 500 | 2000 to 10000
4 | COc1nc(N2CCC(N3CCN(C)CC3)CC2)ccc1Nc1ncc(Br)c(Nc2ccc(F)cc2NS(C)(=O)=O)n1 [Example 28, N-(2-((5-bromo-2-((2-methoxy-6-(4-(4-methylpiperazin-1-yl)piperidin-1-yl)pyridin-3-yl)amino)pyrimidin-4-yl)amino)-5-fluorophenyl)methanesulfonamide] | 500 to 2000 | 2000 to 10000 | 500 to 2000 | 2000 to 10000
5 | COc1nc(N2CCOCC2)ccc1Nc1ncc(Br)c(Nc2ccc(F)cc2NS(C)(=O)=O)n1 [Example 29, N-(2-((5-bromo-2-((2-methoxy-6-morpholinopyridin-3-yl)amino)pyrimidin-4-yl)amino)-5-fluorophenyl)methanesulfonamide] | > 10000 | > 10000 | > 10000 | > 10000
6 | COc1nc(N2CCN(C3CC3)CC2)ccc1Nc1ncc(Br)c(Nc2ccc(F)cc2NS(C)(=O)=O)n1 [Example 30, N-(2-((5-bromo-2-((6-(4-cyclopropylpiperazin-1-yl)-2-methoxypyridin-3-yl)amino)pyrimidin-4-yl)amino)-5-fluorophenyl)methanesulfonamide] | 2000 to 10000 | > 10000 | 2000 to 10000 | > 10000
7 | COc1nc(N2CCC(N3CCOCC3)CC2)ccc1Nc1ncc(Br)c(Nc2ccc(F)cc2NS(C)(=O)=O)n1 [Example 31, N-(2-((5-bromo-2-((2-methoxy-6-(4-morpholinopiperidin-1-yl)pyridin-3-yl)amino)pyrimidin-4-yl)amino)-5-fluorophenyl)methanesulfonamide] | 2000 to 10000 | 2000 to 10000 | 500 to 2000 | 2000 to 10000
8 | COc1nc(N2CCC(C)(C)CC2)ccc1Nc1ncc(Br)c(Nc2ccc(F)cc2NS(C)(=O)=O)n1 [Example 32, N-(2-((5-bromo-2-((6-(4,4-dimethylpiperidin-1-yl)-2-methoxypyridin-3-yl)amino)pyrimidin-4-yl)amino)-5-fluorophenyl)methanesulfonamide] | 2000 to 10000 | 2000 to 10000 | 2000 to 10000 | 2000 to 10000
9 | COc1nc(N2CCC(F)(F)CC2)ccc1Nc1ncc(Br)c(Nc2ccc(F)cc2NS(C)(=O)=O)n1 [Example 33, N-(2-((5-Bromo-2-((6-(4,4-difluoropiperidin-1-yl)-2-methoxypyridin-3-yl)amino)pyrimidin-4-yl)amino)-5-fluorophenyl)methanesulfonamide] | 2000 to 10000 | 2000 to 10000 | 2000 to 10000 | 2000 to 10000
10 | CN1CCN(C2CCN(c3nc(Cl)c(Nc4ncc(Br)c(Nc5ccc(F)cc5NS(C)(=O)=O)n4)cc3C(F)(F)F)CC2)CC1 [Example 34, N-(2-((5-bromo-2-((2-chloro-6-(4-(4-methylpiperazin-1-yl)piperidin-1-yl)-5-(trifluoromethyl)pyridin-3-yl)amino)pyrimidin-4-yl)amino)-5-fluorophenyl)methanesulfonamide] | 100 to 500 | 2000 to 10000 | 500 to 2000 | 2000 to 10000
11 | CN1CCN(C2CCN(c3ccc4cc(Nc5ncc(Br)c(Nc6ccc(F)cc6NS(C)(=O)=O)n5)ccc4n3)CC2)CC1 [Example 35, N-(2-((5-bromo-2-((2-(4-(4-methylpiperazin-1-yl)piperidin-1-yl)quinolin-6-yl)amino)pyrimidin-4-yl)amino)-5-fluorophenyl)methanesulfonamide] | 25 to 100 | 100 to 500 | 25 to 100 | 100 to 500
12 | COc1nc(N2CCN(C3CCN(C)CC3)CC2)ccc1Nc1ncc(Br)c(Nc2ccc(F)cc2NS(C)(=O)=O)n1 [Example 36, N-(2-((5-bromo-2-((2-methoxy-6-(4-(1-methylpiperidin-4-yl)piperazin-1-yl)pyridin-3-yl)amino)pyrimidin-4-yl)amino)-5-fluorophenyl)methanesulfonamide] | 100 to 500 | 500 to 2000 | 100 to 500 | 2000 to 10000
13 | COc1nc(N2CCN(C3CCN(C)CC3)CC2)c(C(F)(F)F)cc1Nc1ncc(Br)c(Nc2ccc(F)cc2NS(C)(=O)=O)n1 [Example 37] | > 10000 | > 10000 | > 10000 | > 10000
14 | COc1cc(N2CCC(N3CCC(N(C)C)C3)CC2)c(C)cc1Nc1ncc(Br)c(Nc2ccc(F)cc2NS(C)(=O)=O)n1 (stereo not shown) [Example 40, N-(2-((5-bromo-2-((4-(4-(3-(dimethylamino)pyrrolidin-1-yl)piperidin-1-yl)-2-methoxy-5-methylphenyl)amino)pyrimidin-4-yl)amino)-5-fluorophenyl)methanesulfonamide] | 100 to 500 | 500 to 2000 | 25 to 100 | 2000 to 10000
15 | COc1cc(N2CCC(Nc3ccnn3C)CC2)c(C)cc1Nc1ncc(Br)c(Nc2ccc(F)cc2NS(C)(=O)=O)n1 [Example 41, N-(2-((5-bromo-2-((2-methoxy-5-methyl-4-(4-((1-methyl-1H-pyrazol-5-yl)amino)piperidin-1-yl)phenyl)amino)pyrimidin-4-yl)amino)-5-fluorophenyl)methanesulfonamide] | 500 to 2000 | 500 to 2000 | 100 to 500 | 2000 to 10000
16 | COc1cc(N2CCC(N3CCN(C4CC4)CC3)CC2)c(C)cc1Nc1ncc(Br)c(Nc2ccc(F)cc2NS(C)(=O)=O)n1 [Example 42, N-(2-((5-bromo-2-((4-(4-(4-cyclopropylpiperazin-1-yl)piperidin-1-yl)-2-methoxy-5-methylphenyl)amino)pyrimidin-4-yl)amino)-5-fluorophenyl)methanesulfonamide] | 100 to 500 | 500 to 2000 | 25 to 100 | 500 to 2000
17 | COc1cc(N2CCC(N3CCN(C)CC3)CC2)c(C)cc1Nc1ncc(Cl)c(Nc2ccccc2CS(C)(=O)=O)n1 [Example 62] | 25 to 100 | 100 to 500 | 25 to 100 | 500 to 2000
18 | CN1CCN(C2CCN(c3ccc(Nc4ncc(Cl)c(Nc5ccccc5CS(C)(=O)=O)n4)cc3F)CC2)CC1 [Example 63] | 25 to 100 | 100 to 500 | 25 to 100 | 25 to 100
19 | COc1nc(N2CCC(N3CCN(C)CC3)CC2)ccc1Nc1ncc(Cl)c(Nc2ccccc2CS(C)(=O)=O)n1 [Example 64] | 500 to 2000 | 2000 to 10000 | 500 to 2000 | 2000 to 10000
20 | COc1cc(N2CCC(N3CCN(C)CC3)CC2)c(C)cc1Nc1ncc(Cl)c(Nc2cc(Cl)ccc2NC(C)=O)n1 [Example 65, N-(4-chloro-2-((5-chloro-2-((2-methoxy-5-methyl-4-(4-(4-methylpiperazin-1-yl)piperidin-1-yl)phenyl)amino)pyrimidin-4-yl)amino)phenyl)acetamide] | 100 to 500 | 500 to 2000 | 100 to 500 | 500 to 2000
21 | COc1nc(N2CCC(N3CCN(C)CC3)CC2)c(C)cc1Nc1ncc(Cl)c(Nc2cc(Cl)ccc2NC(C)=O)n1 [Example 66, N-(4-chloro-2-((5-chloro-2-((2-methoxy-5-methyl-6-(4-(4-methylpiperazin-1-yl)piperidin-1-yl)pyridin-3-yl)amino)pyrimidin-4-yl)amino)phenyl)acetamide] | 100 to 500 | 500 to 2000 | 500 to 2000 | 2000 to 10000
22 | COc1cc(N2CCC(N3CCN(C)CC3)CC2)c(C)cc1Nc1ncc(Cl)c(Nc2ccccc2NC(C)=O)n1 [Example 68, N-(2-((5-chloro-2-((2-methoxy-5-methyl-4-(4-(4-methylpiperazin-1-yl)piperidin-1-yl)phenyl)amino)pyrimidin-4-yl)amino)phenyl)acetamide] | 2000 to 10000 | 2000 to 10000 | 500 to 2000 | 2000 to 10000
